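Cultured in 96-well plates, cells were exposed to test compound for 48 hours across five concentrations. Here, GI50 denotes the concentration required for 50% inhibition of growth.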 The source made the active and inactive calls. Rule as the data show it: active = GI50 up to about 1.1 µM and inactive = higher.

Test systems include 786-0; NCI-H23; SK-MEL-5; HCC 2998; U-251; NCI-H522; HCT-15; SF-268; UO-31; PC-3; NCI-H226; KM12; NCI/ADR-RES; CAKI-1; OVCAR-4; BT-549; OVCAR-3; ACHN; HL-60.
What all share (assay): NCI-60 cell line screen, 48 h

As for `N/C(=N\n1c(=S)[nH]c2ccccc2c1=O)Nn1c(=S)[nH]c2ccccc2c1=O`, the GI50 with 786-0 was 15.3 µM (inactive); in the assay with NCI-H23, 23.1 µM (inactive); in the assay on SK-MEL-5 it was 44.4 µM (inactive); in the assay with HCC 2998, > 100 µM (inactive); in the assay with U-251, 27.9 µM (inactive); in the assay on NCI-H522, 13.3 µM (inactive). For the same molecule, the GI50 is 22.6 µM in the assay on HCT-15; 21.1 µM (inactive) in the assay on SF-268; 14.3 µM (inactive) in the assay on UO-31; 51.8 µM (inactive) with PC-3; 21.7 µM (inactive) in the assay with NCI-H226; 96.8 µM (inactive) in the assay on KM12. Also, the GI50 was 47.6 µM (inactive) in the assay with NCI/ADR-RES; 13.2 µM (inactive) with CAKI-1; 49.9 µM (inactive) with OVCAR-4; 20.3 µM (inactive) in the assay on BT-549; > 100 µM (inactive) in the assay on OVCAR-3; 46.7 µM (inactive) with ACHN.
As to `COc1cc2c(cc1OCCCOc1cc3c(cc1OC)C(=O)N1CCC[C@H]1C(=O)N3)N=C[C@@H]1CCCN1C2=O`, the GI50 was 29 µM (inactive) with 786-0; 23.6 µM (inactive) in the assay with NCI-H23; 12.5 µM (inactive) in the assay with SK-MEL-5; 14.3 µM (inactive) with HCC 2998; 4.65 µM (inactive) in the assay on U-251; 1.73 µM (inactive) with NCI-H522. Moreover, the GI50 in the assay on HL-60 was 8.34 µM (inactive); in the assay with HCT-15 it was 71.3 µM; in the assay on SF-268 it was 4.82 µM (inactive); in the assay with UO-31, 18.5 µM (inactive); with PC-3 it was 13.6 µM (inactive); in the assay on NCI-H226, 14.6 µM (inactive). The GI50 was 16.4 µM (inactive) in the assay with KM12; 76.7 µM (inactive) in the assay on NCI/ADR-RES; 29.9 µM (inactive) with CAKI-1; 18.5 µM (inactive) with OVCAR-4; 10.3 µM (inactive) in the assay on BT-549; 19.5 µM (inactive) in the assay on OVCAR-3. In the assay with ACHN, the GI50 is 17.1 µM (inactive).
For the molecule `O=C(NCCN1CCOCC1)c1ccc(I)cc1`, the GI50 in the assay with 786-0, with NCI-H23, in the assay on SK-MEL-5, in the assay on HCC 2998, in the assay on U-251 and in the assay on HL-60 was > 100 µM (inactive) throughout. The GI50 in the assay on HCT-15 is greater than 100 µM; with SF-268 it was > 100 µM (inactive); in the assay with UO-31, > 100 µM (inactive); with PC-3, > 100 µM (inactive); with NCI-H226, > 100 µM (inactive); in the assay on NCI/ADR-RES, > 100 µM (inactive). Further, the GI50 with CAKI-1, with OVCAR-4, in the assay on BT-549, in the assay on OVCAR-3 and in the assay with ACHN was > 100 µM (inactive) each time.
On to `c1ccc(-c2cc(-c3ccncc3)cc(-c3ccncc3)n2)cc1`, for which the GI50 was 69.3 µM (inactive) in the assay with 786-0; > 100 µM (inactive) with NCI-H23; > 100 µM (inactive) in the assay on SK-MEL-5; > 100 µM (inactive) with HCC 2998; 51.3 µM (inactive) in the assay on U-251; 18.2 µM (inactive) in the assay with NCI-H522. Besides, the GI50 is > 100 µM (inactive) in the assay with HL-60; greater than 100 µM in the assay with HCT-15; 45.6 µM (inactive) in the assay with SF-268; > 100 µM (inactive) in the assay on UO-31; > 100 µM (inactive) in the assay with PC-3; > 100 µM (inactive) in the assay on NCI-H226. The GI50 with KM12, in the assay on NCI/ADR-RES, in the assay with CAKI-1, in the assay on OVCAR-4, with BT-549 and with OVCAR-3 was > 100 µM (inactive) each time. Further, the GI50 in the assay with ACHN is > 100 µM (inactive).
`O=c1[nH][nH]c(=O)n1CCCCCCn1c(=O)[nH][nH]c1=O`: the GI50 with 786-0, in the assay with NCI-H23, with SK-MEL-5, with HCC 2998, in the assay on U-251 and with NCI-H522 was > 100 µM (inactive) in each case. Further, the GI50 was > 100 µM (inactive) in the assay on HL-60; greater than 100 µM in the assay with HCT-15; > 100 µM (inactive) with SF-268; > 100 µM (inactive) in the assay on UO-31; > 100 µM (inactive) in the assay on PC-3; > 100 µM (inactive) in the assay on NCI-H226. For the same molecule, the GI50 in the assay on KM12, with NCI/ADR-RES, with CAKI-1, with OVCAR-4, in the assay on BT-549 and in the assay on OVCAR-3 was > 100 µM (inactive) throughout.
Regarding `COC(=O)/C=C/[C@@H]1[C@H](C)N1S(=O)(=O)c1ccc(C)cc1` (stereo not given in full), the GI50 in the assay on 786-0 is 61.4 µM (inactive); in the assay on NCI-H23, > 100 µM (inactive); in the assay on SK-MEL-5, > 100 µM (inactive); in the assay on HCC 2998, > 100 µM (inactive); in the assay on U-251 it was > 100 µM (inactive); with NCI-H522, > 100 µM (inactive). The GI50 in the assay with HL-60 is > 100 µM (inactive); with HCT-15, greater than 100 µM; in the assay on SF-268, > 100 µM (inactive); with PC-3, > 100 µM (inactive); in the assay with NCI-H226, > 100 µM (inactive); in the assay on NCI/ADR-RES, > 100 µM (inactive). Further, the GI50 in the assay with CAKI-1, with OVCAR-4, in the assay on BT-549, with OVCAR-3 and in the assay with ACHN was > 100 µM (inactive) in each case.
As for `CCOC(=O)C1(C#N)CC1`, the GI50 in the assay with 786-0, with NCI-H23, in the assay with SK-MEL-5, with HCC 2998, in the assay on U-251 and in the assay with NCI-H522 was > 100 µM (inactive) in each case. For the same molecule, the GI50 is > 100 µM (inactive) in the assay with HL-60; greater than 100 µM in the assay on HCT-15; > 100 µM (inactive) in the assay with SF-268; > 100 µM (inactive) in the assay on UO-31; > 100 µM (inactive) in the assay on PC-3; > 100 µM (inactive) with NCI-H226. The GI50 in the assay with KM12, with NCI/ADR-RES, in the assay on CAKI-1, in the assay with OVCAR-4, in the assay on BT-549 and with ACHN was > 100 µM (inactive) in each case.
Turning to `O=C1NC(=S)N/C1=C\c1ccc(Sc2ccccc2C(=O)O)s1`, the GI50 in the assay with 786-0 is > 100 µM (inactive); with NCI-H23, > 100 µM (inactive); with SK-MEL-5, > 100 µM (inactive); in the assay with HCC 2998 it was > 100 µM (inactive); in the assay with U-251, > 100 µM (inactive); with NCI-H522 it was 22.1 µM (inactive). The GI50 in the assay on HL-60 is 44.8 µM (inactive); with HCT-15, greater than 100 µM; in the assay on SF-268, > 100 µM (inactive); in the assay with UO-31, > 100 µM (inactive); in the assay with PC-3, > 100 µM (inactive); with NCI-H226, > 100 µM (inactive). Besides, the GI50 with KM12 is > 100 µM (inactive); in the assay with NCI/ADR-RES, > 100 µM (inactive); in the assay on CAKI-1, 70.3 µM (inactive); in the assay on OVCAR-4, > 100 µM (inactive); in the assay on BT-549, > 100 µM (inactive); in the assay on OVCAR-3, > 100 µM (inactive). Further, the GI50 in the assay with ACHN was > 100 µM (inactive).

The values above are taken from ChEMBL document CHEMBL1201862, “PubChem BioAssay data set” (2004).
